Measurements as given in patent US20070134261A1, “Effectors of innate immunity” (priority 2001, published 2007).
Residues, ends and D or L forms follow the SMILES beside them.

System: A549 human epithelial cell line
Assay: Polynucleotide array (Human Operon) of A549 cells incubated with E. coli O111:B4 LPS with or without peptide
Type: cell-based
Settings: 50 μg/ml, 4 h
Description: The A549 human epithelial cell line was maintained in DMEM (Gibco) supplemented with 10% fetal bovine serum (FBS, Medicorp). […] Total RNA was isolated using RNAqueous (Ambion, Austin, Tex.). […] DNA contamination was removed with DNA-free kit, Ambion).
A “homemade” program was used to remove background. The program calculates the bottom 10% intensity for each subgrid and subtracts this for each grid.
Peptide (50 μg/ml) and LPS (0.1 μg/ml) or LPS alone was incubated with the A549 cells for 4 h and the RNA was isolated. Five μg total RNA was used to make Cy3/Cy5 labeled cDNA probes and hybridized onto Human Operon arrays (PRHU04). The intensity of unstimulated cells is shown in the third column of Table 1. The “Ratio: LPS/control” column refers to the intensity of polynucleotide expression in LPS simulated cells divided by in the intensity of unstimulated cells. The “Ratio: LPS+ID 27/control” column refers to the intensity of polynucleotide expression in cells stimulated with LPS and peptide divided by unstimulated cells.
Peptide and LPS or LPS alone was incubated with the A549 cells for 4 h and the RNA was isolated. 5 μg total RNA was used to make Cy3/Cy5 labeled cDNA probes and hybridized onto Human Operon arrays (PRHU04). The intensity of unstimulated cells is shown in the third column of Table 2. The “Ratio: LPS/control” column refers to the intensity of polynucleotide expression in LPS-simulated cells divided by in the intensity of unstimulated cells. The other columns refer to the intensity of polynucleotide expression in cells stimulated with LPS and peptide divided by unstimulated cells.

[1] = AB007856 FEM-1-like death receptor binding protein

Structure (SMILES): CSCC[C@H](NC(=O)[C@H](CO)NC(=O)[C@@H](NC(=O)[C@H](CCCCN)NC(=O)[C@H](Cc1ccccc1)NC(=O)[C@H](CS)NC(=O)[C@H](CO)NC(=O)[C@H](CCCNC(=N)N)NC(=O)[C@@H](N)CCCCN)C(C)C)C(=O)N[C@@H](CCCNC(=N)N)C(=O)NCC(=O)N[C@H](C(=O)N[C@@H](CO)C(=O)N[C@@H](CCCNC(=N)N)C(=O)N[C@@H](CCCNC(=N)N)C(=O)N[C@@H](CCCNC(=N)N)C(=O)N[C@@H](CS)C(=O)N[C@@H](CCCCN)C(=O)O)C(C)C [SEQ ID NO: 27] (H-KRSCFKVSMRGVSRRRCK-OH; N-terminus and C-terminus assumed)
- Ratio: LPS + ID 27/control (AB007854 growth arrest-specific 7): 2.2
- Ratio: LPS + ID 27/control [1]: 0.6
- Ratio: LPS + ID/Ctrl [1]: 0.62
- Ratio: LPS + ID/Ctrl (AB007896 putative L-type neutral amino acid transporter): 1.82
- Ratio: LPS + ID/Ctrl (AB010894 BAI1-associated protein): 1.38
- Ratio: LPS + ID 27/control (AB014569 KIAA0669 gene product): 0.2
- Ratio: LPS + ID/Ctrl (AB023198 KIAA0981 protein): 0.43
- Ratio: LPS + ID/Ctrl (AB037722 Unknown): 0.30
- Ratio: LPS + ID 27/control (AB040057 serine/threonine protein kinase MASK): 15.8
- Ratio: LPS + ID/Ctrl (AC004849 Unknown): 0.07
- Ratio: LPS + ID 27/control (AF035309 proteasome 26S subunit ATPase 5): 1.3
- Ratio: LPS + ID/Ctrl (AF095687 brain and nasopharyngeal carcinoma susceptibility protein): 0.48
- Ratio: LPS + ID 27/control (AF112219 esterase D/formylglutathione hydrolase): 1.1
- Ratio: LPS + ID 27/control (AF131838 Unknown): 1.4
- Ratio: LPS + ID 27/control (AF151047 hypothetical protein): 1.0
- Ratio: LPS + ID 27/control (AF189009 ubiquilin 2): 1.3
- Ratio: LPS + ID 27/control (AJ001403 mucin 5 subtype B tracheobronchial): 15.9
- Ratio: LPS + ID 27/control (AK000087 hypothetical protein): 1.0
- Ratio: LPS + ID 27/control (AK000264 Unknown): 0.6
- Ratio: LPS + ID/Ctrl (AK000353 cytosolic ovarian carcinoma ag 1): 1.02
- Ratio: LPS + ID 27/control (AK000353 cytosolic ovarian carcinoma antigen 1): 1.0
- Ratio: LPS + ID 27/control (AK000366 hypothetical protein): 1.0
- Ratio: LPS + ID 27/control (AK000562 hypothetical protein): 0.6
- Ratio: LPS + ID 27/control (AK000869 hypothetical protein): 2.3
- Ratio: LPS + ID/Ctrl (AK000869 hypothetical protein): 2.34
- Ratio: LPS + ID/Ctrl (AK001239 hypothetical protein): 1.27
- Ratio: LPS + ID/Ctrl (AK001440 hypothetical protein): 0.43
- Ratio: LPS + ID 27/control (AK001569 hypothetical protein): 1.2
- Ratio: LPS + ID 27/control (AK001589 hypothetical protein): 1.3
- Ratio: LPS + ID/Ctrl (AK001589 hypothetical protein): 1.26
- Ratio: LPS + ID/Ctrl (AK001904 hypothetical protein): 5.93
- Ratio: LPS + ID 27/control (AL031983 Unknown): 5.1
- Ratio: LPS + ID/Ctrl (AL031983 Unknown): 5.06
- Ratio: LPS + ID 27/control (AL050337 interferon gamma receptor 1): 1.0
- Ratio: LPS + ID 27/control (AL050348 Unknown): 1.7
- Ratio: LPS + ID 27/control (AL096739 Unknown): 0.5
- Ratio: LPS + ID/Ctrl (AL122111 hypothetical protein): 0.21
- Ratio: LPS + ID 27/control (AL137376 Unknown): 0.6
- Ratio: LPS + ID/Ctrl (AL137376 Unknown): 0.64
- Ratio: LPS + ID 27/control (AL137614 hypothetical protein): 1.0
- Ratio: LPS + ID 27/control (D14043 CD164 antigen_sialomucin): 1.0
- Ratio: LPS + ID 27/control (D14539 myeloid/lymphoid or mixed-lineage leukemia translocated to 1): 3.1
- Ratio: LPS + ID 27/control (D42085 KIAA0095 gene product): 1.2
- Ratio: LPS + ID 27/control (D87451 ring finger protein 10): 2.1
- Ratio: LPS + ID/Ctrl (D87451 ring finger protein): 2.1
- Ratio: LPS + ID 27/control (J03925 integrin_alpha M): 4.2
- Ratio: LPS + ID 27/control (J04058 electron-transfer-flavoprotein alpha polypeptide): 1.2
- Ratio: LPS + ID 27/control (J04513 fibroblast growth factor 2): 0.9
- Ratio: LPS + ID/Ctrl (J05068 transcobalamin 1): 1.78
- Ratio: LPS + ID 27/control (K02581 thymidine kinase 1 soluble): 3.5
- Ratio: LPS + ID 27/control (L04510 ADP-ribosylation factor): 1.4
- Ratio: LPS + ID/Ctrl (L04510 ADP-ribosylation factor): 1.4
- Ratio: LPS + ID/Ctrl (L19185 thioredoxin-dependent peroxide reductase 1): 0.18
- Ratio: LPS + ID 27/control (L25931 lamin B receptor): 0.7
- Ratio: LPS + ID 27/control (L42243 interferon receptor 2): 5.2
- Ratio: LPS + ID 27/control (M23379 RAS p21 protein activator): 2.8
- Ratio: LPS + ID 27/control (M32315 tumor necrosis factor receptor superfamily member 1B): 0.4
- Ratio: LPS + ID 27/control (M54915 pim-1 oncogene): 0.6
- Ratio: LPS + ID/Ctrl (M54915 pim-1 oncogene): 0.63
- Ratio: LPS + ID 27/control (M57230 interleukin 6 signal transducer): 1.0
- Ratio: LPS + ID/Ctrl (M95678 phospholipase C beta 2): 2.38
- Ratio: LPS + ID/Ctrl (NM_001148 ankyrin 2_neuronal): 0.82
- Ratio: LPS + ID 27/control (NM_001663 ADP-ribosylation factor 6): 1.7
- Ratio: LPS + ID 27/control (NM_001940 dentatorubral-pallidoluysian atrophy): 1.2
- Ratio: LPS + ID 27/control (NM_002309 leukemia inhibitory factor): 1.9
- Ratio: LPS + ID 27/control (NM_004862 LPS-induced TNF-alpha factor): 1.1
- Ratio: LPS + ID 27/control (NM_006092 caspase recruitment domain 4): 0.5
- Ratio: LPS + ID 27/control (NM_006325 RAN member RAS oncogene family): 1.4
- Ratio: LPS + ID 27/control (NM_013241 FH1/FH2 domain-containing protein): 0.6
- Ratio: LPS + ID 27/control (NM_013400 replication initiation region protein): 2.0
- Ratio: LPS + ID 27/control (NM_016216 RNA lariat debranching enzyme): 10.9
- Ratio: LPS + ID 27/control (NM_016237 anaphase-promoting complex subunit 5): 0.9
- Ratio: LPS + ID/Ctrl (NM_016382 NK cell activation inducing ligand NAIL): 0.81
- Ratio: LPS + ID 27/control (U19796 melanoma-associated antigen): 0.6
- Ratio: LPS + ID 27/control (U26648 syntaxin 5A): 1.4
- Ratio: LPS + ID 27/control (U34252 aldehyde dehydrogenase 9): 1.2
- Ratio: LPS + ID 27/control (U43083 guanine cription factor 1): 1.6
- Ratio: LPS + ID/Ctrl (U52522 partner of RAC1): 1.35
- Ratio: LPS + ID 27/control (U52960 SRB7 homolog): 0.8
- Ratio: LPS + ID 27/control (U60205 sterol-C4-methyl oxidase-like): 0.8
- Ratio: LPS + ID 27/control (U78027 galactosidase_alpha): 1.1
- Ratio: LPS + ID/Ctrl (U78166 Ric like): 0.20
- Ratio: LPS + ID 27/control (U78166 Ric-like expressed in neurons): 0.2
- Ratio: LPS + ID 27/control (U91316 cytosolic acyl coenzyme A thioester hydrolase): 1.4
- Ratio: LPS + ID 27/control (U94831 transmembrane 9 superfamily member 1): 1.5
- Ratio: LPS + ID/Ctrl (X03066 MHC class II DO beta): 4.90
- Ratio: LPS + ID/Ctrl (X06614 retinoic acid receptor_alpha): 0.77
- Ratio: LPS + ID/Ctrl (X07173 inter-alpha inhibitor H2): 0.44
- Ratio: LPS + ID 27/control (X13334 CD14 antigen): 1.1
- Ratio: LPS + ID/Ctrl (X16940 smooth muscle enteric actin γ2): 3.24
- Ratio: LPS + ID 27/control (X51688 cyclin A2): 1.0
- Ratio: LPS + ID 27/control (X56777 zona pellucida glycoprotein 3A): 1.4
- Ratio: LPS + ID 27/control (X70394 zinc finger protein 146): 1.7
- Ratio: LPS + ID 27/control (X76104 death-associated protein kinase 1): 1.8
- Ratio: LPS + ID 27/control (X76785 integration site for Epstein-Barr virus): 1.9
- Ratio: LPS + ID 27/control (X80692 mitogen-activated protein kinase 6): 1.3
- Ratio: LPS + ID 27/control (X85750 monocyte to macrophage differentiation-associated): 1.1
- Ratio: LPS + ID 27/control (X92896 Unknown): 1.5
- Ratio: LPS + ID 27/control (X92972 protein phosphatase 6 catalytic subunit): 1.1
- Ratio: LPS + ID 27/control (Z99756 Unknown): 14.0
